Laboratory results as given in patent US12552800B2, “Compounds for diagnosis” (AC IMMUNE SA, priority 2020, dated 2026).

Columns and labels:
[1] = target: T1, PD brain-derived a-syn aggregates (Homo sapiens, UniProt P37840); test: Micro-radiobinding competition assay against Example-1 [^3H-1] (Table 8); assay type: binding
T1 construct: from tissue; host or cells: human PD donor brain, sarkosyl-insoluble 100,000 x g pellet
How it was run: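 Human PD brain-derived α-syn aggregates on microarray slides were co-incubated with 6 nM or 20 nM tritiated radioligand and unlabelled compound at 1 μM and 100 nM, some over 0.05 nM–2 μM. Bound signal read by real-time autoradiography; values are % competition, at least two technical replicates, mean of independent experiments.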

[2] = target: T2, Abeta pathological aggregates (Homo sapiens, UniProt P05067); test: Radiobinding competition assay against [^3H]-Abeta-Ref on AD brain homogenates (example compound 4); assay type: binding; conditions: displacement of [^3H]-Abeta-Ref at 10 nM, AD brain-derived homogenates
T2 construct: Abeta pathological aggregates present in the human AD brain homogenates; from tissue; host or cells: human AD donor brain, Triton/sucrose-insoluble 100,000 x g pellet
Protocol: The procedure was adapted from the protocol described in Bagchi et al., 2013. Frozen tissue blocks from AD donors were thawed on ice and homogenized in high salt buffer (50 mM Tris-HCl pH 7.5, 0.75M NaCl, 5 mM EDTA) supplemented with protease inhibitors (Complete; Roche 11697498001) at 4° C. using a glass Dounce homogenizer. The homogenate was centrifuged at 100,000×g (38,000 RPM) in an ultracentrifuge (Beckman, XL100K) for one hour at 4° C. using a pre-cooled 70.1 rotor (Beckman, 342184). Pellets were resuspended in high salt buffer supplemented with 1% Triton X-100 and homogenized at 4° C. using a glass Dounce homogenizer. The homogenates were centrifuged again at 100,000×g (38,000 RPM, 70.1 rotor) for one hour at 4° C. Pellets were resuspended in high salt buffer supplemented with 1% Triton X-100 and 1 M sucrose and homogenized at 4° C. using a glass Dounce homogenizer. The homogenates were centrifuged at 100,000×g (38,000 RPM, 70.1 rotor) for one hour at 4° C. […]
A fixed concentration of AD insoluble fraction was incubated with a tritiated reference Abeta ligand ([^3H]-Abeta-Ref) at 10 nM and increasing concentrations of non-radiolabelled example compound 1 in the range of 400 pM to 2 μM for two hours at RT. […] The filters were analyzed on a Microbeta2 scintillation counter (PerkinElmer). […]

T2 sequence (P05067 672-713 limits assumed): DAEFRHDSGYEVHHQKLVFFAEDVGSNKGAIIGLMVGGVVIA

Competition at 100 nM (%) ([1]; 100 nM non-radiolabelled example compound vs Example-1 [^3H-1] ligand, human PD brain-derived a-syn aggregates): 58%
Competition at 1 μM (%) ([1]; 1 μM non-radiolabelled example compound vs Example-1 [^3H-1] ligand, human PD brain-derived a-syn aggregates): 92%
Ki ([1]; mean of Ki values in independent experiments using PD brain-derived homogenates from three different donors): 50 nM
Ki [2]: 297 nM
Compound: Cn1cc(N2Cc3nn(-c4ccc(N5CC[C@@H](F)C5)nc4)cc3C2=O)cn1 [Example 4]
